In US20180273571A1, “CONCISE SYNTHESIS OF UREA DERIVATIVES OF AMPHOTERICIN B” (THE BOARD OF TRUSTEES OF THE UNIVERSITY OF ILLINOIS, priority 2015, published 2018):
Values after ≈ are worked out from the molar mass of the structure shown. Like-named read-outs stand apart in the source and are kept apart here.

Columns and labels:
[1] = tested on: human erythrocytes (red blood cells); experiment: Hemolysis assay of human erythrocytes (EH90); type: cell-based
Protocol: (§1) With efficient access to this novel AmB chemotype, ureas AmBAU, AmBMU, and AmBCU were compared to AmB and a range of previously reported AmB derivatives in an in vitro antifungal and human cell toxicity screen. Yeast toxicity was measured with broth microdilution assays (MIC) against Saccharomyces cerevisiae. Human cell toxicity was studied by determining the amount of compound required to cause 90% hemolysis of human erythrocytes (EH90). […] Methyl esterification (AmBME) retains antifungal activity at 0.25 μM against S. cerevisiae, while decreasing hemolysis concentration to one third that seen with AmB. […] Hemolysis activity remained similar to AmBME and C41MeAmB. Bis-amino alkylated amide derivative AmBNR2 was previously shown to moderately improve the therapeutic index.
(§2) Each derivative proposed herein is tested for biological activity against both yeast and human cells to determine its therapeutic index. A broth microdilution experiment determines the MIC (minimum inhibitory concentration) of each derivative against S. cerevisiae and the clinically relevant C. albicans, thereby establishing the antifungal activity of each novel derivative. To test for toxicity against human cells, each compound is exposed to a hemolysis assay against red blood cells which determines the concentration required to cause 90% lysis of human red blood cells (EH90). Additionally, each compound is exposed to human primary renal tubule cells to determine the toxicity of each compound against kidney cells. These assays when compared against the known values of AmB against the same cell lines determine the improvement in therapeutic index of each compound.

Saccharomyces cerevisiae = experiment: Broth microdilution assay (MIC) against Saccharomyces cerevisiae; type: cell-based; conditions: for MIC: broth microdilution, read-out: MIC S. cerevisiae
Protocol: as §1, §2

[2] = Wilcock et al., J Am Chem Soc 135:8488 (2013); cited from earlier work
[3] = Wilcock et al., J Am Chem Soc 135:8488 (2013); cited from earlier work; remark: listed apart in the source
yeast = conditions: in vitro studies, previously reported; cited from earlier work
human cells = conditions: in vitro studies, previously reported; cited from earlier work
Candida albicans = experiment: Broth microdilution MIC against C. albicans; type: cell-based
Protocol: Urea derivatives AmBAU, AmBMU, and AmBCU maintain potent antifungal activity ranging from 0.125 μM to 3 μM against S. cerevisiae. […] AmBCU required 324 μM to cause 90% hemolysis in red blood cells, more than 30× required by AmB. Encouraged by this initial therapeutic index screen the urea series was further tested against the clinically relevant fungal cell line Candida albicans. C. albicans is the most common human fungal infection. AmB inhibits yeast grown of C. albicans at 0.25 μM. Similar to the trend seen with S. cerevisiae, the potency of the urea derivatives increased with increasing amount of cationic character. AmBAU, AmBMU, and AmBCU require 0.25, 0.5, and 1 μM respectively (Table 2).
as §2, with “Additionally, each compound is exposed to human primary renal tubule cells to determine the toxicity of each compound against kidney cells. These assays when compared against the known values of AmB against the same cell lines determine the improvement in therapeutic index of each compound.” left out

[4] = Acute toxicity, single intravenous administration to healthy mice, lethality; type: in vivo; conditions: single intravenous 4 mg/kg
Protocol: FIG. 6 is a graph depicting lethality in healthy mice of single intravenous administration in the doses indicated of AmB, AmBMU, or AmBAU.
In a separate set of experiments, acute toxicity was evaluated by single intravenous administration of 1, 2, 4, 8, 16, 32, or 64 mg/kg AmB or its derivatives to healthy mice, followed by monitoring for lethality. […] AmBAU was drastically less toxic with >50% lethality not being reached until the 64 mg/kg dosage group.

CC(C)/C=C/[C@@H](CC1O[C@](O)(C[C@@H](O)C(C)C)C[C@H](O)[C@H]1C(=O)NCCN)OC1OC(C)C(O)C(N)C1O (stereo partly shown) [AmBAA]
EH90 red blood cells ([1]; human): 33.96 ± 8.85 µM | MIC (Saccharomyces cerevisiae; Saccharomyces cerevisiae): 0.03 µM (≈ 0.0164 µg/mL)

COC(=O)[C@H]1C(C[C@H](/C=C/C(C)C)OC2OC(C)C(O)C(N)C2O)O[C@](O)(C[C@@H](O)C(C)C)C[C@@H]1O (stereo partly shown) [AmBME]
hemolysis concentration relative to that seen with AmB [1]: one third | EH90 red blood cells ([1]; human): 30.67 ± 5.38 µM | MIC (Saccharomyces cerevisiae; Saccharomyces cerevisiae): 0.25 µM (≈ 0.13 µg/mL)

CC(C)/C=C/[C@@H](CC1O[C@](O)(C[C@@H](O)C(C)C)C[C@H](O)[C@H]1C(=O)NCCn1cncn1)OC1OC(C)C(O)C(N(CCCN)CCCN)C1O (stereo partly shown) [AmBNR2]
MIC (Saccharomyces cerevisiae; Saccharomyces cerevisiae): 0.25 µM (≈ 0.178 µg/mL)

CC(C)/C=C/[C@H](O)CC1O[C@](O)(C[C@@H](O)C(C)C)C[C@H](O)[C@H]1C(=O)O (stereo partly shown) [AmdeB]
cell-killing activity in human cell assay [1]: completely abolishes cell-killing activity | EH90 red blood cells ([1]; human): >500 µM | MIC (Saccharomyces cerevisiae; Saccharomyces cerevisiae): > 500 µM | cell-killing activity in yeast assay (Saccharomyces cerevisiae; in words): completely abolishes cell-killing activity

CC1C=CC=CC=CC=CC=CC=CC=CC(OC2CC(N)C(O)C(C)O2)CC2OC(O)(CC(O)CC(O)C(O)CCC(O)CC(O)CC(=O)OC(C)C(C)C1O)CC(O)C2C(=O)O (stereo not shown) [C2′deOAmB]
binding to cholesterol [2]: shows no binding to cholesterol | ergosterol-binding ability [3]: retains ergosterol-binding ability | toxicity to yeast (yeast): toxic to yeast | toxicity to human cells (human cells): not human cells

amphotericin B [AmB]
MIC C. albicans (Candida albicans): 0.25 µM | EH90 red blood cells ([1]; amount of compound required to cause 90% hemolysis of human erythrocytes): 10.37 ± 1.17 µM | EH90 red blood cells ([1]; amount of compound required to cause 90% hemolysis of human erythrocytes, listed as Amphotericin B): 10.4 µM | lethality [4]: died within seconds | MIC (Saccharomyces cerevisiae): 0.5 µM
